Tested on: β-catenin-TCF-mediated reporter transcription activity in Colo 205 cells
Experiment: Colo 205 reporter assay (TCF/LEF luciferase)
Format: cell-based
Conditions: Colo 205 TCF/LEF luciferase reporter, five hours after addition of compound; read-out: TCF reporter Colo205 IC50
Procedure, shortened: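 Luciferase signal from a TCF/LEF-driven reporter, stably integrated in Colo 205 colon cancer cells, was measured 5 h after compound addition.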

SMILES	IC50
CC[C@H]1C(=O)N(C)c2cnc(NCc3cnn(Cc4ccc(F)cc4)c3)nc2N1C(C)C [Compound 52, (7S)-7-ethyl-2-(((1-(4-fluorobenzyl)-1H-pyrazol-4-yl)methyl)amino)-8-isopropyl-5-methyl-7,8-dihydropteridin-6(5H)-one]	0.3 to 1 µM

Same assay, conditions: Homo sapiens, COLO 205, 5 h, Colo 205 TCF/LEF luciferase reporter, five hours after addition of compound; read-out: TCF reporter Colo205 IC50

SMILES	IC50
COc1cc(O[C@H]2C[C@H](Nc3nc(C)c4c(n3)N(C)[C@@H](C)C(=O)N4)C2)ccc1F [Compound 370, (7S)-2-((trans-3-(4-fluoro-3-methoxyphenoxy)cyclobutyl)amino)-4,7,8-trimethyl-7,8-dihydropteridin-6(5H)-one]	< 0.3 µM
COc1ccc(OC[C@H]2C[C@@H](Nc3nc(C)c4c(n3)N(C)[C@@H](C(C)C)C(=O)N4)C2)cn1 [Compound 573, (S)-7-isopropyl-2-((cis-3-(((6-methoxypyridin-3-yl)oxy)methyl)cyclobutyl)amino)-4,8-dimethyl-7,8-dihydropteridin-6(5H)-one]	< 0.3 µM
Cc1nc(N[C@H]2C[C@H](Oc3cnc(C(F)(F)F)nc3)C2)nc2c1N(C)C(=O)[C@H](C)N2C [Compound 334, (7S)-4,5,7,8-tetramethyl-2-((trans-3-((2-(trifluoromethyl)pyrimidin-5-yl)oxy)cyclobutyl)amino)-7,8-dihydropteridin-6(5H)-one]	0.3 to 1 µM
Cc1nc(N[C@H]2C[C@@H](NC(=O)Cc3ccc(C(F)(F)F)nc3)C2)nc2c1NC(=O)[C@H](C(C)C)N2C [Compound 559, N-(cis-3-(((S)-7-isopropyl-4,8-dimethyl-6-oxo-5,6,7,8-tetrahydropteridin-2-yl)amino)cyclobutyl)-2-(6-(trifluoromethyl)pyridin-3-yl)acetamide]	1 to 5 µM
Cc1nc(NCc2cnn(CC3CCC(F)(F)CC3)c2)nc2c1NC(=O)[C@H](C)N2C [Compound 58, (7S)-2-(((1-((4,4-difluorocyclohexyl)methyl)-1H-pyrazol-4-yl)methyl)amino)-4,7,8-trimethyl-7,8-dihydropteridin-6(5H)-one]	< 0.3 µM
Cc1nc(NCc2ccn(Cc3ccc(C(F)(F)F)nc3)n2)nc2c1NC(=O)C1(CC(F)(F)C1)N2C [Compound 601, 3,3-difluoro-4′,8′-dimethyl-2′-(((1-((6-(trifluoromethyl)pyridin-3-yl)methyl)-1H-pyrazol-3-yl)methyl)amino)-5′,8′-dihydro-6′H-spiro[cyclobutane-1,7′-pteridin]-6′-one]	0.3 to 1 µM
Cc1nc(N[C@H]2C[C@H](NCc3cc(F)c(F)c(F)c3)C2)nc2c1NC(=O)[C@H](C(C)C)N2C [Compound 535, (S)-7-isopropyl-4,8-dimethyl-2-((trans-3-((3,4,5-trifluorobenzyl)amino)cyclobutyl)amino)-7,8-dihydropteridin-6(5H)-one]	< 0.3 µM
COc1ccc(O[C@H]2C[C@H](Nc3nc(C)c4c(n3)N(C)[C@@H](C)C(=O)N4C)C2)cc1 [Compound 343, (7S)-2-((trans-3-(4-methoxyphenoxy)cyclobutyl)amino)-4,5,7,8-tetramethyl-7,8-dihydropteridin-6(5H)-one]	≥ 5 µM
Cc1nc(NCc2cnn(Cc3ccc(OC(C)C)nc3)c2)nc2c1N(C)C(=O)[C@H](C)N2C [Compound 129, (7S)-2-(((1-((6-isopropoxypyridin-3-yl)methyl)-1H-pyrazol-4-yl)methyl)amino)-4,5,7,8-tetramethyl-7,8-dihydropteridin-6(5H)-one]	0.3 to 1 µM
Cc1nc(N[C@H]2CC[C@H](N(C)c3ccc(C(F)(F)F)cc3)C2)nc2c1NC(=O)[C@H](C(C)C)N2C [Compound 503, (S)-7-isopropyl-4,8-dimethyl-2-(((1S,3S)-3-(methyl(4-(trifluoromethyl)phenyl)amino)cyclopentyl)amino)-7,8-dihydropteridin-6(5H)-one]	1 to 5 µM
Cc1nc(NC2CN(C(=O)Cc3ccc(F)cc3F)C2)nc2c1NC(=O)[C@H](C(C)C)N2C [Compound 616, (S)-2-((1-(2-(2,4-difluorophenyl)acetyl)azetidin-3-yl)amino)-7-isopropyl-4,8-dimethyl-7,8-dihydropteridin-6(5H)-one]	0.3 to 1 µM
Cc1nc(NCc2cnn(Cc3ccnc(C#N)c3)c2)nc2c1NC(=O)[C@H](C)N2C [Compound 204, (7S)-4-((4-(((4,7,8-trimethyl-6-oxo-5,6,7,8-tetrahydropteridin-2-yl)amino)methyl)-1H-pyrazol-1-yl)methyl)picolinonitrile]	≥ 5 µM
COCC1(C)C(=O)Nc2c(C)nc(NCc3cnn(Cc4ccc(C(F)(F)F)nc4)c3)nc2N1C (stereo not drawn) [Compound 703, 7-(methoxymethyl)-4,7,8-trimethyl-2-(((1-((6-(trifluoromethyl)pyridin-3-yl)methyl)-1H-pyrazol-4-yl)methyl)amino)-7,8-dihydropteridin-6(5H)-one]	0.3 to 1 µM
Cc1nc(NC2CN(C(=O)c3ccn(C(F)F)n3)C2)nc2c1NC(=O)[C@H](C(C)C)N2C [Compound 614, (S)-2-((1-(1-(difluoromethyl)-1H-pyrazole-3-carbonyl)azetidin-3-yl)amino)-7-isopropyl-4,8-dimethyl-7,8-dihydropteridin-6(5H)-one]	1 to 5 µM
Cc1nc(NCc2cnn([C@H]3C[C@H]3c3ccc(F)cc3)c2)nc2c1N(C)C(=O)[C@H](C)N2C [Compound 153, (7S)-2-(((1-((1S,2S)-2-(4-fluorophenyl)cyclopropyl)-1H-pyrazol-4-yl)methyl)amino)-4,5,7,8-tetramethyl-7,8-dihydropteridin-6(5H)-one]	< 0.3 µM
Cc1nc(N[C@H]2C[C@@H](N(C)c3cnc(C(F)(F)F)cn3)C2)nc2c1NC(=O)[C@H](C(C)C)N2C [Compound 652, (S)-7-isopropyl-4,8-dimethyl-2-((cis-3-(methyl(5-(trifluoromethyl)pyrazin-2-yl)amino)cyclobutyl)amino)-7,8-dihydropteridin-6(5H)-one]	0.3 to 1 µM
Cc1nc(N[C@H]2C[C@H](Nc3cnc(C(F)(F)F)cn3)C2)nc2c1NC(=O)[C@H](C(C)C)N2C [Compound 558, (S)-7-isopropyl-4,8-dimethyl-2-((trans-3-((5-(trifluoromethyl)pyrazin-2-yl)amino)cyclobutyl)amino)-7,8-dihydropteridin-6(5H)-one]	1 to 5 µM
C[C@H]1C(=O)Nc2cnc(N[C@H]3C[C@H](Oc4ccc(F)cc4)C3)nc2N1C [Compound 240, (7S)-2-((trans-3-(4-fluorophenoxy)cyclobutyl)amino)-7,8-dimethyl-7,8-dihydropteridin-6(5H)-one]	1 to 5 µM
Cc1nc(NCc2ccnc(N3CCOCC3)c2)nc2c1NC(=O)[C@H](C)N2C [Compound 62, (S)-4,7,8-trimethyl-2-(((2-morpholinopyridin-4-yl)methyl)amino)-7,8-dihydropteridin-6(5H)-one]	≥ 5 µM
Cc1nc(NC2CN(C(=O)C3CCC(C)O3)C2)nc2c1NC(=O)[C@H](C(C)C)N2C (stereo partly drawn) [Compound 637, (7S)-7-isopropyl-4,8-dimethyl-2-((1-(5-methyltetrahydrofuran-2-carbonyl)azetidin-3-yl)amino)-7,8-dihydropteridin-6(5H)-one]	≥ 5 µM
Cc1nc(NCc2cnn(C[C@@H](C)c3ccc(F)cc3)c2)nc2c1NC(=O)[C@H](C)N2C [Compound 95, (7S)-2-(((1-((S)-2-(4-fluorophenyl)propyl)-1H-pyrazol-4-yl)methyl)amino)-4,7,8-trimethyl-7,8-dihydropteridin-6(5H)-one]	< 0.3 µM
COc1cc(OC[C@H]2C[C@@H](Nc3nc(C)c4c(n3)N(C)[C@@H](C)C(=O)N4)C2)cc(OC)c1OC [Compound 280, (7S)-4,7,8-trimethyl-2-((cis-3-((3,4,5-trimethoxyphenoxy)methyl)-cyclobutyl)amino)-7,8-dihydropteridin-6(5H)-one]	< 0.3 µM
Cc1nc(N[C@H]2C[C@H](Nc3cc(C(F)(F)F)ncn3)C2)nc2c1NC(=O)[C@H](C(C)C)N2C [Compound 530, (S)-7-isopropyl-4,8-dimethyl-2-((trans-3-((6-(trifluoromethyl)pyrimidin-4-yl)amino)cyclobutyl)amino)-7,8-dihydropteridin-6(5H)-one]	≥ 5 µM
Cc1nc(N[C@H]2C[C@@H](COCc3ccc(F)cc3)C2)nc2c1NC(=O)[C@H](C)N2C [Compound 286, (7S)-2-((cis-3-(((4-fluorobenzyl)oxy)methyl)cyclobutyl)amino)-4,7,8-trimethyl-7,8-dihydropteridin-6(5H)-one]	< 0.3 µM
Cc1nc(NCc2cnn(Cc3ccc(F)cn3)c2)nc2c1NC(=O)[C@H](C(C)C)N2C [Compound 454, (S)-2-(((1-((5-fluoropyridin-2-yl)methyl)-1H-pyrazol-4-yl)methyl)amino)-7-isopropyl-4,8-dimethyl-7,8-dihydropteridin-6(5H)-one]	< 0.3 µM
Cc1nc(NC2CN(C(=O)Cc3cc(F)cc(F)c3)C2)nc2c1NC(=O)[C@H](C(C)C)N2C [Compound 629, (S)-2-((1-(2-(3,5-difluorophenyl)acetyl)azetidin-3-yl)amino)-7-isopropyl-4,8-dimethyl-7,8-dihydropteridin-6(5H)-one]	< 0.3 µM
C[C@H]1C(=O)Nc2cnc(NCc3cnn(Cc4ccc(C(F)(F)F)nc4)c3)nc2N1C [Compound 195, (7S)-7,8-dimethyl-2-(((1-((6-(trifluoromethyl)pyridin-3-yl)methyl)-1H-pyrazol-4-yl)methyl)amino)-7,8-dihydropteridin-6(5H)-one]	0.3 to 1 µM
Cc1nc(NC2CN(C(=O)Cc3ccc(F)cc3)C2)nc2c1NC(=O)[C@H](C(C)C)N2C [Compound 618, (S)-2-((1-(2-(4-fluorophenyl)acetyl)azetidin-3-yl)amino)-7-isopropyl-4,8-dimethyl-7,8-dihydropteridin-6(5H)-one]	0.3 to 1 µM

Same assay, conditions: Homo sapiens, COLO 205, 5 h, R-isomer at C2 (corresponding to C2 S-isomer); Colo 205 TCF/LEF luciferase reporter, 5 h; read-out: TCF reporter Colo205 IC50

SMILES	IC50
Cc1nc(NCc2cnn(Cc3cc(F)c(F)c(F)c3)c2)nc2c1N(C)C(=O)[C@@H](C)N2C [Compound I-1229]	< 0.3 µM

From US20230312587A1, “PTERIDINONE COMPOUNDS AND USES THEREOF” (Vertex Pharmaceutical Incorporated, priority 2018, published 2023)
